From US20240384226A1, “RHODOPSEUDOMONAS PALUSTRIS TIE-1 STRAINS AND METHODS FOR BIOPLASTIC PRODUCTION” (Washington University, priority 2023, published 2024)
Converted amounts (≈) assume the structure as drawn.

Test system: TIE-1
Assay: minimum inhibitory concentration (MIC) of antibiotics for TIE-1
Type: cell-based, Rhodopseudomonas palustris TIE-1
Details: resistance of TIE-1 to selection antibiotics; for MIC: Rhodopseudomonas palustris

Molecule	MIC	minimum inhibitory concentration (MIC)
O=C(N[C@H](CO)[C@H](O)c1ccc([N+](=O)[O-])cc1)C(Cl)Cl [chloramphenicol]	100 µg/mL (≈ 309 µM)	–
NC[C@H]1O[C@H](O[C@H]2[C@H](O)[C@@H](O[C@H]3O[C@H](CO)[C@@H](O)[C@H](N)[C@H]3O)[C@H](N)C[C@@H]2N)[C@H](O)[C@@H](O)[C@@H]1O [kanamycin]	50 µg/mL (≈ 103 µM)	–
gentamicin	–	200 µg/mL
